{"source": "patent US20090092740A1", "about": "“METHOD FOR INCREASING LONG-TERM STORAGE OF CUT FLOWERS” (GREENOY LTD., priority 2006, published 2009)", "test_system": "cut Rose Flowers (Akito and Red One varieties)", "conditions": "several ppm in acrylic emulsion (tested 0.8 to 11.2 ppm); stored at 2° C. for one month; FIG. 1", "description": "The flowers were dipped in several emulsions that included several concentration of STS (diluted from 8 g/l by taking from 0.1 to 1.4 ml per liter), ranging from 0.8 to 11.2 ppm. A bunch of roses, flowers and leaves, was dipped in the solution at each concentration for 2 seconds three times. Each treatment included 10 flowers. After the dip process, the flowers were put on a net for 10 minutes, so that an excess solution could drain off. The flowers were kept in an impregnation box at 2° C. for one month, and then they were allocated in vases for quality and shelf life assessments. The quality and appearance of the flowers were checked every day (FIG. 1).", "data": [{"substance": "silver thiosulfate", "values": [{"measurement": "quality of the stored roses", "value": "improves the quality of the stored roses"}]}]}
